Test results reported in patent US20110092517A1, “Use of PPAR Delta Ligands for the Treatment or Prevention of Inflammation or Energy Metabolism/Production Related Diseases” (Cerenis Therapeutics S.A. & Nippon Chemiphar Co., Ltd., priority 2009, published 2011).
Several values for one entry are separate records, joined by “and”; a condition that tells them apart may be missing. Equal entries are not always repeated. Entries after “also recorded” stand apart in the source; their conditions may differ. Where two headings read alike, the source gives them in different places.

Legend:
[1] = tested on: Tibialis-anterior muscle fibers; assay: Histochemical staining for succinate dehydrogenase (SDH) of tibialis-anterior muscle, quantification of oxidative fibers; format: in vivo, rat; settings: for Biopsis #1 Non-oxydative fibers (pixels) / Biopsis #1 oxydative fibers (% from total pixels) / Biopsis #1 oxydative fibers (pixels) / Biopsis #2 Non-oxydative fibers (pixels) / Biopsis #2 oxydative fibers (% from total pixels) / Biopsis #2 oxydative fibers (pixels): rat tibialis-anterior, individual animals
Method: The muscle fibers on a set of animals that were treated with the compound 1.1 at the doses of 3 or 10 mg/kg once a day for 3 weeks are analyzed. Tibialis-anterior from 3 animals per group were used for both morpho-histology analysis and molecular analysis of specific markers of mitochondrial activities. The histology analysis was preformed on cryosection followed by a histochemical staining for succinate dehydrogenase (SDH) (Luquet S. et al., FASEB J, 2003. 17(15): p. 2299-301). Two biopsies of each muscle samples were generated and analyzed.
The quantification was performed by using Adobe Photoshop software (Lehr et al. Histochem Cytochem, 1997. 45(11): p. 1559-65, J Histochem Cytochem, 1999. 47(1): p. 119-26), and was based on pictures (in TIFF format) obtained from different slides of muscle (Tibialis-Anterior).
For each picture identical areas of about 57000 pixels at similar magnification were selected and the surface occupied by the stained fibers was measured (FIG. 1). The results are expressed as the percentage of the area of highly-stained and moderately-stain fibers from the total area selected. The analysis is performed in a blinded fashion.
Statistical analysis (Prism-Graphpad) was performed using unpaired T-test with: * corresponding to p<0.05 and ** to p<0.01.

mouse PPARα = target: T1, mouse PPARα (Mus musculus, UniProt P23204); assay: GAL4-PPAR chimera transactivation assay in CV-1 cells at 10% or 0.1% serum (Example 4); format: cell-based; settings: read-out: GAL4-chimera (mouse) EC50 (μM) hPPARα
T1 construct: amino acids 167-468 for hs and m; expressed in transfected cells; host or cells: CV-1
T1 sequence (P23204 167-468): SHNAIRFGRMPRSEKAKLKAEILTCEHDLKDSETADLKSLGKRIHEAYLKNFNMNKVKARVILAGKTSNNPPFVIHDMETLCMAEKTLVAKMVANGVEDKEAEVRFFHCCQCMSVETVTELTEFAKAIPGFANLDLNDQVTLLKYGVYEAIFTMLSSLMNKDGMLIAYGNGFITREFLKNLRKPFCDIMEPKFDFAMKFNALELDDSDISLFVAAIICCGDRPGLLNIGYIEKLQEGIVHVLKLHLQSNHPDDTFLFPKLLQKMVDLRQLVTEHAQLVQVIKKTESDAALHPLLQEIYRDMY

mouse PPARγ = target: T2, mouse PPARγ (Mus musculus, UniProt P37238); assay: as above; format: cell-based; settings: read-out: GAL4-chimera (mouse) EC50 (μM) hPPARγ
T2 construct: amino acids 204-505 for m and mm from PPARγ; expressed in transfected cells; host or cells: CV-1
T2 sequence (P37238 204-505): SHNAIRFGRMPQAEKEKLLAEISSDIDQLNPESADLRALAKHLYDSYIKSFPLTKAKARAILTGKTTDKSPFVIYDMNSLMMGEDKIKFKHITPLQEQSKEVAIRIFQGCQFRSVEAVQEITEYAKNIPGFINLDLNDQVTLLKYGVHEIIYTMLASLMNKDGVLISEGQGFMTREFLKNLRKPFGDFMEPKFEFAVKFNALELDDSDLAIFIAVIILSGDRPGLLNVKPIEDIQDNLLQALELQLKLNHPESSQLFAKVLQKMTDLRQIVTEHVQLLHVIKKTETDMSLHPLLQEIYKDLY

mouse PPARδ = target: T3, mouse PPARδ (Mus musculus, UniProt P35396); assay: as above; format: cell-based; settings: read-out: GAL4-chimera (mouse) EC50 (μM) hPPARδ
T3 construct: amino acids 139-440 for m; expressed in transfected cells; host or cells: CV-1
T3 sequence (P35396 139-440): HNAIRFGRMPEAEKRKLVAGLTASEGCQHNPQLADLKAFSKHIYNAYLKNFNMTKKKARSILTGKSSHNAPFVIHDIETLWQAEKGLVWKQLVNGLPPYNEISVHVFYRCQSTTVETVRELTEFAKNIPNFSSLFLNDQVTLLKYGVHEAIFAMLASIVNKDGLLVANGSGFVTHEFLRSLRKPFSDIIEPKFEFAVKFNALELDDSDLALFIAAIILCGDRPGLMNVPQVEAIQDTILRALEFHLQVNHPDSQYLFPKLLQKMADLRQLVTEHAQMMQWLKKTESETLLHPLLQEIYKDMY

[2] = Body weight follow-up during treatment in rats fed a high fat/medium fructose diet (WD); format: in vivo, rat; settings: oral once daily
Text: The first set of rats was undergoing an OGTT after 3 weeks of treatment (half rats/group of the clamp arm) and the second set was also undergoing an OGTT after 3 weeks of treatment (half rats/group of clamp arm) and the Histology study (3 rats/group). […] Homogenous mild obese and insulin resistant rats were allocated into the different treatment groups and western diet was continued until the end of the experiment. Given that, the 2 series started with a gap of one week Dosage regimen: Rats were treated once daily via the oral route, in the morning. The duration of the treatment was between 5 and 5.5 weeks. […], 10 mg/Kg (n=12) […] The second set of rats was weighted at 8:30 on days 17 and 21, at 1:45 pm on day 24 and at 11:10 am on day 28.

[3] = Oral glucose tolerance test after 3 weeks of treatment in WD fed rats; format: in vivo, rat; settings: 6 h fasted, oral glucose 2.5 g/kg after 3 weeks
[4] = Triglycerides content in the liver after 5 weeks of treatment in WD fed rats (enzymatic-colorimetric method); format: in vivo, rat; settings: pioglitazone 10, GW501516 10, compound I.1 at any used dose
Method: At the end of the clamp procedure (9.5 hours fasting), perirenal, retroperitoneal, epididymal and inguinal fat pads and liver weights were recorded. Blood was collected from cardiac puncture and plasmas were stored at −80° C. for further assays if needed (depending on the radioactive state of samples). Liver triglyceride content was assessed (enzymatic-colorimetric method) as well as liver and adipose tissue TNF-α content (ELISA method).

[5] = 3 mg/kg once a day for 3 weeks, listed as COMP.I.1, 3 mg/kg
[6] = 10 mg/kg once a day for 3 weeks
[7] = 10 mg/kg once a day for 3 weeks, listed as COMP.I.1, 10 mg/kg

EC50 (mouse PPARα; 0.1% serum): > 10 µM
EC50 (mouse PPARα; 10% serum): > 10 µM
EC50 (mouse PPARγ; 0.1% serum): > 10 µM
EC50 (mouse PPARγ; 10% serum): > 10 µM
EC50 (mouse PPARδ; 0.1% serum): 0.065 ± 0.001 µM
EC50 (mouse PPARδ; 10% serum): 0.327 ± 0.07 µM
Compound: Cc1cc(C(=O)CCc2sc(-c3ccc(C(F)(F)F)cc3)nc2C(C)C)ccc1OCC(=O)O [compound I.1, 4-[3-[4-Isopropyl-2-[4-(trifluoromethyl)phenyl]-5-thiazolyl]propionyl]-2-methylphenoxyacetic acid]
Increase of the number of oxidative fiber in tibialis muscle ([1]; WD fed rats, SDH histology, dose not specified): about 50%
Biopsis #1 Non-oxydative fibers (pixels) [1, 5]: 15343 pixels and 16157 pixels and 27185 pixels
Biopsis #1 oxydative fibers (% from total pixels) [1, 5]: 73.56 % from total pixels and 72.16 % from total pixels and 51.41 % from total pixels
Biopsis #1 oxydative fibers (pixels) [1, 5]: 42685 pixels and 41871 pixels and 28767 pixels
Biopsis #2 Non-oxydative fibers (pixels) [1, 5]: 16208 pixels and 1109 pixels and 16402 pixels
Biopsis #2 oxydative fibers (% from total pixels) [1, 5]: 72.07 % from total pixels and 81.01 % from total pixels and 69.92 % from total pixels
Biopsis #2 oxydative fibers (pixels) [1, 5]: 41820 pixels and 47009 pixels and 38128 pixels
Biopsis #2 Non-oxydative fibers (pixels) [1, 6]: 9243 pixels
Biopsis #2 oxydative fibers (% from total pixels) [1, 6]: 83.06 % from total pixels
Biopsis #2 oxydative fibers (pixels) [1, 6]: 45326 pixels
Biopsis #1 Non-oxydative fibers (pixels) [1, 7]: 18992 pixels and 27170 pixels and 16958 pixels
Biopsis #1 oxydative fibers (% from total pixels) [1, 7]: 68.84 % from total pixels and 52.66 % from total pixels and 70.78 % from total pixels
Biopsis #1 oxydative fibers (pixels) [1, 7]: 35030 pixels and 30218 pixels and 41070 pixels
Body weight / body weight gain during treatment ([2]; compound I.1 3 mg/kg (alone or +metformin 50 mg/kg)): did not affect body weight gain
Body weight / body weight gain during treatment ([2]; pioglitazone 10, metformin 50, GW501516 10, compound I.1 10 mg/kg (alone or +metformin 50 mg/kg)): decreased thereafter body weight gain, until a significant effect after 4 weeks of treatment
Glucose tolerance (OGTT, AUC, glycemia variation) ([3]; compound I.1 3 mg/kg): slight tendency to improve glucose tolerance
Glucose tolerance (OGTT, AUC, glycemia variation) ([3]; pioglitazone 10, metformin 50, GW501516 10, compound I.1 10 mg/kg): significantly improved glucose tolerance
Triglycerides content in the liver [4]: did not affect; also recorded: did not significantly decrease
